Assay results from PubChem BioAssay (NCI).
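How tested: cells in 96-well plates exposed to compound for 48 hours at five concentrations. At the TGI there is no net growth.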

Assays:
Test in all cases: DTP human tumour cell line panel, 48 h
[1] = system: A498 renal
[2] = system: DLD-1 colon
[3] = system: DMS 273 small cell lung
[4] = system: KM20L2 colon
[5] = system: M14 melanoma
[6] = system: M19-MEL melanoma
[7] = system: OVCAR-8 ovarian
[8] = system: XF 498 CNS
[9] = system: MCF7 breast

Structure (SMILES) | TGI [1] [µM] | TGI [2] [µM] | TGI [3] [µM] | TGI [4] [µM] | TGI [5] [µM] | TGI [6] [µM] | TGI [7] [µM] | TGI [8] [µM] | TGI [9] [µM]
O=S1(=O)c2ccccc2NC(c2ccc3ccccc3c2)CC1c1ccccc1F (stereo unspecified) | > 100 | > 100 | > 100 | > 100 | > 100 | > 100 | > 100 | > 100 | –
O=CC[C@H]1C(=O)C[C@@H]2CCC[C@@H]21 | > 100 | – | – | – | > 100 | > 100 | > 100 | > 100 | –
Clc1cc2nsnc2c(Cl)n1 | > 100 | 42.1 | > 100 | > 100 | 29 | 75.5 | – | 31.2 | –
O=C1/C(=C/c2ccccc2)CN(C(=O)C(Cl)(Cl)Cl)C/C1=C\c1ccccc1 | 13.7 | 4.28 | 2.38 | 4.67 | 2.62 | 2.68 | 3.1 | – | –
CC1(c2ccc(F)cc2)C(C#N)C(=O)NC(=O)C1C#N (stereo unspecified) | > 100 | > 100 | > 100 | > 100 | > 100 | > 100 | > 100 | > 100 | –
CNS(=O)(=O)NNS(=O)(=O)c1ccc2ccccc2c1 | > 100 | > 100 | > 100 | > 100 | > 100 | > 100 | > 100 | – | –
CCOC(=O)C1=C(C)NC(=S)NC1c1ccccc1 (stereo unspecified) | > 100 | > 100 | > 100 | > 56.5 | > 100 | > 58.9 | > 100 | 99.7 | –
O=C(N/C(=C\c1ccc(/C=C(\NC(=O)c2ccccc2)c2nc3cc([N+](=O)[O-])ccc3[nH]2)cc1)c1nc2cc([N+](=O)[O-])ccc2[nH]1)c1ccccc1 | > 100 | > 100 | > 100 | > 100 | > 100 | > 100 | > 100 | – | –
O=C(/C=C/c1ccccc1)NC1C=Nc2ccc(Cl)cc2NC1=O (stereo unspecified) | > 100 | > 100 | 54.6 | 62.9 | 65.6 | 64.5 | > 100 | 50.1 | –
COc1cc2c(cc1OC)-c1c3cc(O)ccc3nn[n+]1CC2 | – | > 100 | > 100 | > 100 | > 100 | > 100 | > 100 | > 100 | –
CC(=O)NNc1nc(C)c(C(=O)NNC(=O)C(=O)Nc2ccc(Cl)cc2)s1 | – | – | – | > 100 | > 100 | > 100 | > 100 | > 100 | –
CCCCCCCCCCCOc1ccc(C(=O)C(=O)c2ccc(OCCCCCCCCCCC)c(OCCCCCCCCCCC)c2)cc1OCCCCCCCCCCC | > 100 | > 100 | > 100 | > 100 | > 100 | > 100 | > 100 | > 100 | –
COC(CN1C(=O)c2cccc3cccc(c23)C1=O)OC | > 100 | > 100 | > 100 | > 100 | > 100 | > 100 | > 100 | > 100 | –
N#CCCN(CCC#N)c1ccc(/C=C2\N=C(c3cc([N+](=O)[O-])ccc3Cl)OC2=O)cc1 | > 100 | – | > 100 | > 100 | > 100 | 45 | 37.7 | 86.2 | –
O=C1C2C(C(=O)N1OS(=O)(=O)c1ccccc1)N(Cc1ccccc1)C(=O)N2Cc1ccccc1 (stereo unspecified) | > 100 | > 100 | – | > 100 | > 100 | > 100 | – | > 100 | –
CN(C)CC[N+]1=Nc2cccc3cccc(c23)N1 | > 100 | > 59.8 | 35.6 | > 100 | > 100 | > 100 | > 100 | > 100 | –
CN1C(=O)C(C)(C)C2(SC(C)(C)C2(C)C)N(C)C1=S (stereo unspecified) | – | > 100 | > 100 | – | > 100 | > 100 | > 100 | – | –
CCCCCCCCCCCCCCCCCC(CCCCCCCCCCCCCCCCC)OP(=O)(O)O | > 100 | – | > 100 | > 100 | > 100 | > 100 | > 100 | – | –
Cc1cc(C)nc(NS(=O)(=O)c2ccc(NC(=O)c3ccc(Cl)c4c(Nc5ccc(S(=O)(=O)Nc6nc(C)cc(C)n6)cc5)c5ccccc5nc34)cc2)n1 | 57.4 | 84.2 | > 100 | 69.9 | 6.95 | 8.28 | > 100 | > 100 | –
O=CN/C=C/c1cc(O)ccc1O | > 100 | 34.4 | > 100 | > 80.3 | 32.8 | 28.5 | 43 | 34.1 | 30.2
O=C(COc1ccc(Br)cc1Br)N1N=C(c2ccc([N+](=O)[O-])o2)CC1(O)c1ccccc1 (stereo unspecified) | 23.8 | 30.2 | 32.5 | 58.8 | 21.9 | – | 36.7 | – | –
COc1ccccc1C12OC(=O)C1(C)Oc1ccccc1C2=O (stereo unspecified) | > 100 | > 100 | 86.4 | > 100 | > 100 | > 100 | > 100 | > 100 | –
